Data on two compounds can be found in patent US11001573B2, “Citric acid derivative” (ADABIO CO., LTD., priority 2015, dated 2021).

Each structure is given as a SMILES string.

For this test, the system named is Wistar male rats given galactosamine hydrochloride. Put plainly: Test on liver dysfunction suppression effect (galactosamine hydrochloride-induced liver disorder, plasma AST/ALT). The test is classed as in vivo, rat. The note with it: oral 7 days, 6 g/kg of 6 mg/mL solution, galactosamine hydrochloride 750 mg/kg i.p. on day 7, blood on day 9, vs control administration group (p<0.05, Dunnett). The protocol: (Preparation of Administration Products for Animal Test)
(1) Preparation of Compound I Administration Product
An 8 N sodium hydroxide aqueous solution was added dropwise to 100 mL of roughly purified solution I in small amounts, while checking the pH with a pH meter, to adjust the acid-base property of the solution to pH 6.5. Further, the mixture was diluted with a solvent.
(2) Preparation of Compound V Administration Product
An 8 N sodium hydroxide aqueous solution was added dropwise to 100 mL of roughly purified solution I in small amounts, while checking the pH with a pH meter, to adjust the acid-base property of the solution to pH 8.6, followed by heating at 121° C. for 30 minutes, and further the mixture was diluted with a solvent (the pH of the solution after the heating changed to about pH 6.2 due to acid formation by hydrolysis reaction).
(Test on Liver Dysfunction Suppression Effect)
The aforementioned administration products (1) and (2) were dissolved in a solvent composed of oligosaccharide, cyclic oligosaccharide, and D-sorbitol to give a solution, and the final concentration of compounds I and V dissolved in the solution administered was adjusted to 6 mg/mL. The solution in an amount of 6 g/kg as calculated from specific gravity of the solution was orally administered to 8 week-old Wistar male rats (CHARLES RIVER LABORATORIES JAPAN, INC.) for 7 days with free access to commercially available solid feed and tap water. The solvent free from the aforementioned compounds (1) and (2) in an amount of 6 g/kg was orally administered to the control animals for 7 days. On the 7th day after the start of administration, a 750 mg/kg dose of galactosamine hydrochloride (Wako Pure Chemical Industries, Ltd.) was intraperitoneally administered to each of the animals to which the control and compounds I and V were administered, and the abdomen was opened on the 9th day after the start of administration under pentobarbital anesthesia (50 mg/kg), to collect heparinized blood from the abdominal aorta. The obtained blood was separated into blood plasma, and the AST and ALT values thereof were measured by the JSCC standardization-corresponding method. In FIG. 14, the results are shown as average+standard deviation (the number of animals of each group was 20). Symbol * represents a significant difference (p<0.05) from the control group, which was tested by the Dunnett's test after the one-way analysis of variance.

In the case of `O=C(O)CC(C(=O)O)N1C(=O)CC(O)(CC(=O)O)C1=O` (stereo not shown) [compound I], the “ALT value in blood plasma” value is “significantly low” and the “AST value in blood plasma” value is “significantly low”.
As for `O=C(O)CC(NC(=O)CC(O)(CC(=O)O)C(=O)O)C(=O)O` (stereo not shown) [compound V], the “ALT value in blood plasma” value is reported as “significantly low” and the “AST value in blood plasma” value was “significantly low”.
